# Source: PubChem BioAssay AID1963834 (Molecular Pharmacology Branch, DTP, NCI, 2024)
# System: 873145-292-R-J1-PDC complex spheroid viability
# Experiment: Anticancer human tumor 873145-292-R-J1-PDC patient-derived renal clear cell carcinoma cell line growth inhibition [POLQ]
# Details: for IC50: curve of first compound; for viability, T/C: stronger effect = lower value
# Procedure: Multicellular complex tumor spheroid response to Polymerase (POL) inhibitors (novobiocin, ART-558, RP6685) in combination with a variety of drugs and investigational agents in selected tumor cell lines
# The POL inhibitors (novobiocin, ART-558, and RP6685) were evaluated both individually and in combination with standard of care and investigational anticancer small molecules within a complex spheroid model of solid tumors. . Complex spheroids include a stromal component modeled by human endothelial cells (HUVEC) and fibroblasts modeled by human mesenchymal stem cells (MSCs). The concentration ranges selected for each drug and investigational agent were based upon clinically achievable concentrations if the clinical Cmax of the agent was known.
# Compounds. The drugs and investigational agents: novobiocin (NSC847541), ART-558 (NSC835418), RP-6685 (NSC848927), peposertib (NSC802822), ceralasertib (NSC780249), elimusertib (NSC800525), camonsertib (NSC841442), AZD-1390 (NSC803789), olaparib (NSC753686), talazoparib (NSC767125), rucaparib (NSC756644), sotorasib (NSC818433), MRTX-1133 (NSC836407), SN-38 (NSC673596), topotecan (NSC609699), epotoside (NSC141540), doxorubicin (NSC123127), gemcitabine (NSC613327), 5-fluorouracil (NSC19893), paclitaxel (NSC125973), vemurafenib (NSC761431), MSA-2 (NSC828583), SN-011 (NSC837082), adavosertib (NSC754352), prexasertib (NSC758257), carboplatin (NSC241240) and oxaliplatin (NSC266046), were obtained from the National Cancer Institute (NCI) Developmental Therapeutics Program Chemical Repository (21). The FDA-approved anticancer drug set is available from the Developmental Therapeutics Program at https://dtp.cancer.gov/organization/dscb/obtaining/. […] The stock solutions were prepared in dimethyl sulfoxide (DMSO, Sigma-Aldrich, St. Louis, MO, cat. D2650), except for the platinum compounds which were prepared in saline (Quality Biological, Gaithersburg, MD, cat. 114-055-101), at 800-fold the tested concentration and stored at -70 degrees C prior to their use. All drugs and investigational agents were tested over a range starting from a high concentration at or near the clinical Cmax and decreasing in half-log increments. If the clinical Cmax for an agent had not been determined, the highest concentration tested was 10 microM, except for SN-38, which was tested at a high concentration of 1 microM.
# Cell Culture. All cells were maintained in an incubator at 37 degrees C and 5% CO2 with 95% humidity. The PDC lines were cultured according to standard operating procedures established by the NCI PDMR (https://pdmr.cancer.gov). Table 3 of the manuscript, lists the cell lines along with the number of the three cell types plated to form the mct-spheroids and media for tumor cell growth. After thawing, all PDC lines, except 997537-175-T-J1-PDC and 415267-285-R-J2-PDC, were cultured in Matrigel-coated flasks prepared with a working solution of 1X Ham's F-12 nutrient mix, without supplementation (Thermo Fisher Scientific, cat. 11765054), 100 U/mL penicillin-streptomycin (Thermo Fisher Scientific, cat. 15140122), and 2.5% Matrigel (Corning Inc., Corning, NY, cat. 354248) for the first three passages. The two PDC lines 997537-175-T-J1-PDC and 415267-285-R-J2-PDC were cultured on uncoated flasks. The 857933-349-R-J2-PDC line was cultured in 6C/Colon 1B media containing advanced DMEM/F-12 (Thermo Fisher Scientific, cat. 12634028), 10 mM HEPES (Thermo Fisher Scientific, cat. 15630080), 1X GlutaMAX supplement (Thermo Fisher Scientific, cat. 35050061), 0.1 mg/mL primocin (InvivoGen, San Diego, CA, cat. ant-pm-2), 10% defined fetal bovine serum, heat inactivated (HyClone Laboratories Inc., Logan, UT, cat. SH30070.03HI), 50% L-WRN conditioned media (ATCC, cat. CRL-3276), 1.25 mM N-Acetyl-L-cysteine (Sigma-Aldrich, cat. A9165), 10 mM nicotinamide (Sigma-Aldrich, cat. N0636), 1X B-27 supplement (Thermo Fisher Scientific, cat. 17504044), 1X N-2 supplement (Thermo Fisher Scientific, cat. […]
# [1] = second compound 0.0316 µM, first compound 0.0316 µM
# [2] = second compound 0.0316 µM, first compound 0.1 µM
# [3] = second compound 0.1 µM, first compound 0.0316 µM
# [4] = second compound 0.1 µM, first compound 0.1 µM
# [5] = second compound 0.316 µM, first compound 0.0316 µM
# [6] = second compound 0.316 µM, first compound 0.1 µM
# [7] = second compound 1 µM, first compound 0.0316 µM
# [8] = second compound 1 µM, first compound 0.1 µM
# [9] = second compound 3.16 µM, first compound 0.0316 µM
# [10] = second compound 3.16 µM, first compound 0.1 µM
# [11] = second compound 10 µM, first compound 0.0316 µM
# [12] = second compound 10 µM, first compound 0.1 µM
# 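Also: spheroids exposed to compounds for 7 days before viability readout.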
# 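For viability, T/C in this document: luminescence signal used as surrogate for viable cell content; 100% = DMSO vehicle control viability.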
smiles,measurement,setting,value
CC1COCCN1c1cc(-c2ccnn2C)c2ccnc(-c3ccn[nH]3)c2n1 (centres undefined) + COC1C(OC(N)=O)C(O)C(Oc2ccc3c(O)c(NC(=O)c4ccc(O)c(CC=C(C)C)c4)c(=O)oc3c2C)OC1(C)C,IC50,second compound 0.0316 µM,1520 nM
same,IC50,second compound 0.1 µM,986 nM
same,IC50,second compound 0.316 µM,1210 nM
same,IC50,second compound 1 µM,864 nM
same,IC50,second compound 3.16 µM,952 nM
same,IC50,second compound 10 µM,948 nM
same,"viability, T/C",[1],86.7%
same,"viability, T/C",[2],80.9%
same,"viability, T/C","second compound 0.0316 µM, first compound 0.316 µM",68.6%
same,"viability, T/C","second compound 0.0316 µM, first compound 1 µM",54.8%
same,"viability, T/C","second compound 0.0316 µM, first compound 3.16 µM",42.2%
same,"viability, T/C","second compound 0.0316 µM, first compound 10 µM",38.5%
same,"viability, T/C",[3],94.1%
same,"viability, T/C",[4],83.4%
same,"viability, T/C","second compound 0.1 µM, first compound 0.316 µM",70%
same,"viability, T/C","second compound 0.1 µM, first compound 1 µM",47.1%
same,"viability, T/C","second compound 0.1 µM, first compound 3.16 µM",43.8%
same,"viability, T/C","second compound 0.1 µM, first compound 10 µM",47.3%
same,"viability, T/C",[5],94.2%
same,"viability, T/C",[6],76.3%
same,"viability, T/C","second compound 0.316 µM, first compound 0.316 µM",63.7%
same,"viability, T/C","second compound 0.316 µM, first compound 1 µM",51.6%
same,"viability, T/C","second compound 0.316 µM, first compound 3.16 µM",41.2%
same,"viability, T/C","second compound 0.316 µM, first compound 10 µM",45.1%
same,"viability, T/C",[7],92.5%
same,"viability, T/C",[8],80.9%
same,"viability, T/C","second compound 1 µM, first compound 0.316 µM",63.4%
same,"viability, T/C","second compound 1 µM, first compound 1 µM",47.6%
same,"viability, T/C","second compound 1 µM, first compound 3.16 µM",42.1%
same,"viability, T/C","second compound 1 µM, first compound 10 µM",42.3%
same,"viability, T/C",[9],85.1%
same,"viability, T/C",[10],79.8%
same,"viability, T/C","second compound 3.16 µM, first compound 0.316 µM",66.8%
same,"viability, T/C","second compound 3.16 µM, first compound 1 µM",49.9%
same,"viability, T/C","second compound 3.16 µM, first compound 3.16 µM",38.3%
same,"viability, T/C","second compound 3.16 µM, first compound 10 µM",38.1%
same,"viability, T/C",[11],93%
same,"viability, T/C",[12],82.8%
same,"viability, T/C","second compound 10 µM, first compound 0.316 µM",67.2%
same,"viability, T/C","second compound 10 µM, first compound 1 µM",47.6%
same,"viability, T/C","second compound 10 µM, first compound 3.16 µM",43.7%
same,"viability, T/C","second compound 10 µM, first compound 10 µM",41.8%
Cn1ncnc1[C@H]1c2n[nH]c(=O)c3cc(F)cc(c23)N[C@@H]1c1ccc(F)cc1 + COC1C(OC(N)=O)C(O)C(Oc2ccc3c(O)c(NC(=O)c4ccc(O)c(CC=C(C)C)c4)c(=O)oc3c2C)OC1(C)C,IC50,second compound 0.0316 µM,> 100 nM
same,IC50,second compound 0.1 µM,> 100 nM
same,IC50,second compound 0.316 µM,> 100 nM
same,IC50,second compound 1 µM,> 100 nM
same,IC50,second compound 3.16 µM,> 100 nM
same,IC50,second compound 10 µM,> 100 nM
same,"viability, T/C","second compound 0.0316 µM, first compound 0.000316 µM",98.5%
same,"viability, T/C","second compound 0.0316 µM, first compound 0.001 µM",102%
same,"viability, T/C","second compound 0.0316 µM, first compound 0.00316 µM",87.2%
same,"viability, T/C","second compound 0.0316 µM, first compound 0.01 µM",94.8%
same,"viability, T/C",[1],102%
same,"viability, T/C",[2],95.9%
same,"viability, T/C","second compound 0.1 µM, first compound 0.000316 µM",101%
same,"viability, T/C","second compound 0.1 µM, first compound 0.001 µM",102%
same,"viability, T/C","second compound 0.1 µM, first compound 0.00316 µM",96.2%
same,"viability, T/C","second compound 0.1 µM, first compound 0.01 µM",85.9%
same,"viability, T/C",[3],99.5%
same,"viability, T/C",[4],84.2%
same,"viability, T/C","second compound 0.316 µM, first compound 0.000316 µM",102%
same,"viability, T/C","second compound 0.316 µM, first compound 0.001 µM",98.7%
same,"viability, T/C","second compound 0.316 µM, first compound 0.00316 µM",102%
same,"viability, T/C","second compound 0.316 µM, first compound 0.01 µM",93.1%
same,"viability, T/C",[5],94.8%
same,"viability, T/C",[6],91.6%
same,"viability, T/C","second compound 1 µM, first compound 0.000316 µM",103%
same,"viability, T/C","second compound 1 µM, first compound 0.001 µM",99.3%
same,"viability, T/C","second compound 1 µM, first compound 0.00316 µM",95.6%
same,"viability, T/C","second compound 1 µM, first compound 0.01 µM",103%
same,"viability, T/C",[7],94.5%
same,"viability, T/C",[8],89.8%
same,"viability, T/C","second compound 3.16 µM, first compound 0.000316 µM",101%
same,"viability, T/C","second compound 3.16 µM, first compound 0.001 µM",97.7%
same,"viability, T/C","second compound 3.16 µM, first compound 0.00316 µM",108%
same,"viability, T/C","second compound 3.16 µM, first compound 0.01 µM",89.3%
same,"viability, T/C",[9],98.8%
same,"viability, T/C",[10],99.3%
same,"viability, T/C","second compound 10 µM, first compound 0.000316 µM",98.9%
same,"viability, T/C","second compound 10 µM, first compound 0.001 µM",95%
same,"viability, T/C","second compound 10 µM, first compound 0.00316 µM",104%
same,"viability, T/C","second compound 10 µM, first compound 0.01 µM",90.9%
same,"viability, T/C",[11],95.2%
same,"viability, T/C",[12],94.9%
